For one test, the system named is rust pathogens of wheat. Description: whole plant or invertebrate. Format: in vivo.
The test system of test [1] is downy mildew pathogens of cucumber. Description: Toxicity test on downy mildew pathogens of cucumber (disease index and control effect on whole cucumber plant). In kind it is in vivo. The note with it: for ATI: actual toxicity index.
In another test the test system is oomycetes. The note with it: background statement; cited from earlier work.

Values after ≈ are worked out from the molar mass of the structure shown. Some results are limits rather than exact numbers.

The EC50 is the concentration needed to bring the measured effect to its halfway point. Turning to `Fc1ccc([C@]2(Cn3cncn3)O[C@H]2c2ccccc2Cl)cc1` (racemic) [Epoxiconazole, epoxiconazole], in the test on rust pathogens of wheat (Triticum aestivum), the concentration giving a half-maximal response (EC50) stood at 5.29 µg/mL (≈ 16 µM). With `O=C(S)c1cccc2nnsc12` [Acibenzolar, acibenzolar], in test [1] (Table 8, with acibenzolar), the EC50 is 5.38 µg/mL (≈ 27.4 µM) and the ATI is given as 91.45. In test [1] (Table 3, with azoxystrobin), `CO/C=C(/C(=O)OC)c1ccccc1Oc1cc(Oc2ccccc2C#N)ncn1` [Azoxystrobin, azoxystrobin] displayed an EC50 of 5.82 µg/mL (≈ 14.4 µM) and an ATI of 72.34. `CC(C)OC(=O)N[C@H](C(=O)N[C@H](C)c1nc2ccc(F)cc2s1)C(C)C` [Benthiavalicarb-isopropyl, benthiavalicarb-isopropyl] yielded an EC50 in test [1] (Cucumis sativus) of 5.41 µg/mL (≈ 14.2 µM). This compound also had an ATI in test [1] (Table 1, with benthiavalicarb-isopropyl) of 60.1. `Cc1cc(C2CC2)nc(Nc2ccccc2)n1` [Cyprodinil, cyprodinil] displayed an EC50 in the test with rust pathogens of wheat (Triticum aestivum) of 5.87 µg/mL (≈ 26.1 µM). On the same count and under the same terms, with `CC1COC(Cn2cncn2)(c2ccc(Oc3ccc(Cl)cc3)cc2Cl)O1` (stereo not shown) [Difenoconazole, difenoconazole] the figure was 5.45 µg/mL (≈ 13.4 µM). `COc1ccc(C(=CC(=O)N2CCOCC2)c2ccc(Cl)cc2)cc1OC` [Dimethomorph, dimethomorph]: in test [1] (Table 2, with dimethomorph), the ATI came to 63.9. Further, the “concentration at which an inhibitory effect is exerted” value with oomycetes is less than 0.25 µg/mL. In test [1] (Cucumis sativus), `N#Cc1sc2c(=O)c3ccccc3c(=O)c=2sc1C#N` [Dithianon, dithianon] had an EC50 of 5.34 µg/mL (≈ 18 µM). The compound also displayed an ATI in test [1] (Table 5, with dithianon) of 88.39. As for `CSC1=N[C@@](C)(c2ccccc2)C(=O)N1Nc1ccccc1` [Fenamidone, fenamidone], in test [1] (Cucumis sativus), the EC50 worked out at 5.12 µg/mL (≈ 16.4 µM). The ATI in test [1] (Table 4, with fenamidone) was determined as 107.62.

`O=[N+]([O-])c1cc(C(F)(F)F)c(Cl)c([N+](=O)[O-])c1Nc1ncc(C(F)(F)F)cc1Cl` [Fluazinam, fluazinam] showed an EC50 in test [1] (Cucumis sativus) of 5.19 µg/mL (≈ 11.2 µM). Moreover, in test [1] (Table 9, with fluazinam), the ATI was 97.88. In turn, `CC(C)NC(=O)N1CC(=O)N(c2cc(Cl)cc(Cl)c2)C1=O` [Iprodione, iprodione] displayed an EC50 in the test with rust pathogens of wheat (Triticum aestivum) of 5.35 µg/mL (≈ 16.2 µM). In the test with rust pathogens of wheat (Table 15, with picoxystrobin), `CO/C=C(/C(=O)OC)c1ccccc1COc1cccc(C(F)(F)F)n1` [Picoxystrobin, picoxystrobin] had a concentration giving a half-maximal response (EC50) of 5.68 µg/mL (≈ 15.5 µM). The ATI in the test on rust pathogens of wheat (actual toxicity index, Table 15, with picoxystrobin) was 87.68. In turn, `OC(Cc1ccccc1Cl)(Cn1nc[nH]c1=S)C1(Cl)CC1` (stereo not shown) [Prothioconazole, prothioconazole] yielded an EC50 in the test with rust pathogens of wheat (Triticum aestivum) of 5.12 µg/mL (≈ 14.9 µM). The same measure, in the same setting: for `COC(=O)N(OC)c1ccccc1COc1ccn(-c2ccc(Cl)cc2)n1` [Pyraclostrobin, pyraclostrobin] the value was 4.98 µg/mL (≈ 12.8 µM); for `Cc1nc(C(F)(F)F)c(C(=O)Nc2c(Br)cc(OC(F)(F)F)cc2Br)s1` [Thifluzamide, thifluzamide], 5.12 µg/mL (≈ 9.7 µM). The same measure, in the same setting: for `CON=C(C(=O)OC)c1ccccc1CON=C(C)c1cccc(C(F)(F)F)c1` [Trifloxystrobin, trifloxystrobin] the value was 4.75 µg/mL (≈ 11.6 µM). On to `CCC(C)(NC(=O)c1cc(Cl)c(C)c(Cl)c1)C(=O)CCl` (stereo not shown) [Zoxamide, zoxamide], for which, in test [1] (Cucumis sativus), the EC50 is 5.11 µg/mL (≈ 15.2 µM). This compound came in with an ATI in test [1] (Table 7, with zoxamide) of 95.69. In test [1] (Table 6, with polyoxin), polyoxin displayed an EC50 of 5.24 µg/mL and an ATI of 89.89.

These data come from patent US9867373B2, “Fungicidal composition having synergistic effect” (JIANGSU HUIFENG AGROCHEMICAL CO., LTD., priority 2013, dated 2018).
